Data from patent US4440757A, “Pharmaceutical composition comprising derivative of aminobenzoic acid for regulating prostaglandin” (priority 1978, dated 1984).

What was measured:
dog's stomach = assay type: in vivo, Beagle dog; conditions: dog, in vivo
Procedure: Five grams of the present substance (each of Specimens Nos. 1, 2, 3, 4, 5, 6, 7, 8, 9, 10 and 11) and of aspirin were respectively administered to each Beagle of body weight of 9 to 12 kg as an aqueous suspension in distilled water of adjusted pH of 3, and after 90 min of the administration, the state of hemorrhage in the dog's stomach was examined.

[1] = system: cervical aorta of an SD rat, PGI2; test: PGI2 production by cuttings of cervical aorta; assay type: cell-based; conditions: 50 microliters of 2% solution into 500 microliters, 10 min
Procedure: After extirpating the cervical aorta of an SD rat under anesthsia, it was washed with Krebs-Linger bicarbonate buffer solution and cut into thin rings, and the cutings were kept in the above-mentioned buffer solution at a rate of 1 mg of wet cuttings per 0.5 ml to produce PGI2.
Into 500 microliters of the thus prepared mixture, 50 micro-liters of an aqueous physiological saline solution containing 2% by weight of the present substance (each of Specimens Nos. 4, 7 and 8) dissolved therein were added and, since the production of PGI2 generally attains to its maximum after 10 min of keeping, a supernatant liquid (2.5 μl) of the mixture was prepared after 10 min of the addition, and then the amount of PGI2 in the supernatant liquid was determined by using the action of suppression of aggregation of the platelets as an index and using ADP as the agglutinating agent, only an aqueous physiological solution being used as control.

[2] = system: Salmonella typhimurium TA 98; test: Mutagenicity, reversion assay, TA 98; assay type: cell-based; conditions: 5,000 μg/plate; control 13
Procedure: (§1) (ii) The strains TA 98 and TA 100 (both are histidine requiring) of Salmonella typhimurium were used in the reversion assay.
(§2) Into 2 ml of a soft agar culture medium (the medium itself contains 6 g of sodium chloride and 6 g of agar in 1000 ml of distilled water) to which one tenth by volume of an aqueous solution of 0.5 mM of biotin and 0.5 mM of histidine had been added, 0.1 ml of the bacterial suspension and 0.1 ml of an aqueous solution of the present substance were admixed and the mixture was layered on the minimum agar culture medium. After 2 days of incubation at 37° C., the number of revertant colonies was counted. Furylfuramide (AF-2) was used as the positive control.

cats = test: Pyrexia caused by pyrogen (Shigella dysentriae o-antigen) and PGE in c.s.f.; assay type: in vivo, cat
Procedure: The experiments were carried out on cats weighing 3 to 3.5 kg. In an aseptic operation under intraperitoneally administered sodium pentobarbitone at 36 mg/kg, a Collison cannula was implanted into the rostral part of the third ventricle of the cat.
A few days after implantation of the cannula, when the cat had recovered from the operation, specimens of cerebrospinal fluid were collected without anesthesia, whilst the cat was kept unrestrained in its cage, and its rectal temperature was recorded.
The specimens of cerebrospinal fluid (c.s.f.) were assayed immediately after collection, or after having been stored at -2° for 24 to 48 hours, and the determination of PGE in the specimens was carried out as in Example 9 using ^3 H-Prostaglandin E Radioimmunoassay Kit (manufactured by Clinical Assay Co., USA). Rectal temperature was recorded at room temperature (21° to 23° C.) with the thermistor probe inserted about 10 cm deep into the rectum.
As the pyrogen, somatic type o-antigen of Shigella dysentriae was used, and after dissolving 75 ng of the pyrogen into 0.15 ml of a pyrogen-free artificial c.s.f., the solution was injected into the third ventricle through the implanted cannula to induce fever.
After 2 hours of administration, the rectal temperature was measured to confirm the occurrence of pyrexia and then the present substance (each of Specimens Nos. 4, 7 and 8) was forcibly administered orally as an aqueous solution in distilled water at a rate of 100 mg/kg, control being administered only with distilled water in this time.
The rectal temperature of all animals was measured after one hour of the administration of the present substance.
The c.s.f. for the determination of its content of PGE was collected respectively before and after 2 hours of the injection of the pyrogen and after one hour of the administration of the present substance.

thoracic aorta, PGI2 = test: PGI2 production in arterial tissue of diabetic rats; assay type: in vivo, male Sprague-Dowley rats; conditions: 100 mg/kg p.o., diabetic rat; not administered 0.07, normal 0.26
Procedure: (§3) Groups of male Sprague-Dowley rats of body weight of about 200 g are used for the present experiments. Some groups of the rats were intravenously administered with streptozotocin at 80 mg/kg one to three months in advance of the beginning of the present experiment to be in a state of diabetes mellitus. Those rats of the same strain, the same sex and the same age without being administered with streptozotocin were used as control.
(§4) The present substances (Specimens Nos. 4, 7 and 8) were respectively administered to the groups of rats suffering from the artificial diabetes mellitus forcibly by oral route at a rate of 100 mg/kg as an aqueous solution in distilled water.
In the next place, the amount of prostaglandin I2 produced in the arterial tissue was measured as follows:
Thoracic aorta of the rat was rapidly extirpated, washed with Krebs' buffer solution at a temperature of 4° C. and cut into thin rings of 1 to 2 mg in weight. Then, into 200 microliters of Krebs' buffer solution, 60 mg of the thus cut aorta were added and the mixture was incubated for 3 min at 22° C.
The amount of prostaglandin I2 (PGI2) produced by the cut aorta was determined on the supernatant liquid (1 to 10 microliters) of the above-mentioned incubated culture in the same manner as in Example 2 using the suppressing action of platelet aggregation as an index, however, using adenosine diphosphate as the agglutinating agent. After preparing a standard calibration curve using an authentic specimen of PGI2, the content of PGI2 of the above-mentioned supernatant liquid was obtained from the standard curve in ng/mg of wet weight of the arterial tissue.

[3] = system: Salmonella typhimurium TA 100; test: Mutagenicity, reversion assay, TA 100; assay type: cell-based; conditions: 5,000 μg/plate; control 149
Procedure: as §1, §2

[4] = system: streptozotocin diabetic rats; test: Blood sugar of diabetic rats; assay type: in vivo, male Sprague-Dowley rats; conditions: 100 mg/kg p.o., 6 hours, diabetic rat; not administered 412.1, normal 76.7
Procedure: as §3, §4
After 6 hours of the administration of the present substance, blood specimen was collected from the rat under anesthesia by ether in an amount of 0.5 ml/animal, and the content of blood sugar was measured by the enzymatic method.

[5] = 1 hour after admin. Specimen, 100 mg/kg p.o., control 10
[6] = 1 hour after admin. Specimen, 100 mg/kg p.o., control 40.7
[7] = 2 hours after admin. pyrogen (before dosing)
[8] = before admin. pyrogen (before dosing)

O=C(O)c1ccc(NC2OC[C@@H](O)[C@H](O)[C@H]2O)cc1 (stereo partly drawn) [Specimen No. 7, Sodium p-aminobenzoate-N--D-xyloside]
hemorrhage in the stomach (dog's stomach): no hemorrhage in the stomach was found | production of PGI2 by cuttings of cervical aorta (FIG. 15) [1]: raised the production of PGI2 | Number of revertant colonies TA 98 [2]: 4 number per plate | Amount of PGE in c.s.f. (cats; [5]): 6 ng/ml of c.s.f. | Rectal temperature (cats; [6]): 39.5 °C | Amount of PGE in c.s.f. (cats; [7]): 16 ng/ml of c.s.f. | Rectal temperature (cats; [7]): 41.1 °C | Amount of PGE in c.s.f. (cats; [8]): 2.4 ng/ml of c.s.f. | Rectal temperature (cats; [8]): 38.8 °C | PGI2 (thoracic aorta, PGI2): 0.22 ± 0.02 ng/mg wet tissue | Number of revertant colonies TA 100 [3]: 58 number per plate | Blood sugar [4]: 165.0 ± 11.0 mg/100 ml

C[C@@H]1OC(Nc2ccc(C(=O)O)cc2)[C@H](O)[C@H](O)[C@H]1O (stereo partly drawn) [Specimen No. 8, Sodium p-aminobenzoate-N--L-rhamnoside]
hemorrhage in the stomach (dog's stomach): no hemorrhage in the stomach was found | production of PGI2 by cuttings of cervical aorta (FIG. 15) [1]: raised the production of PGI2 | Number of revertant colonies TA 98 [2]: 4 number per plate | Amount of PGE in c.s.f. (cats; [5]): 8 ng/ml of c.s.f. | Rectal temperature (cats; [6]): 40.0 °C | Amount of PGE in c.s.f. (cats; [7]): 13 ng/ml of c.s.f. | Rectal temperature (cats; [7]): 41.5 °C | Rectal temperature (cats; [8]): 39.1 °C | PGI2 (thoracic aorta, PGI2): 0.18 ± 0.04 ng/mg wet tissue | Number of revertant colonies TA 100 [3]: 73 number per plate | Blood sugar [4]: 110.1 ± 5.5 mg/100 ml

O=C(O)c1ccc(NC2O[C@H](CO)[C@@H](O)[C@H](O)[C@@H]2O)cc1 (stereo partly drawn) [Specimen No. 4, Sodium p-aminobenzoate-N--D-mannoside]
hemorrhage in the stomach (dog's stomach): no hemorrhage in the stomach was found | production of PGI2 by cuttings of cervical aorta (FIG. 15) [1]: raised the production of PGI2 | Number of revertant colonies TA 98 [2]: 5 number per plate | Amount of PGE in c.s.f. (cats; [5]): 5 ng/ml of c.s.f. | Rectal temperature (cats; [6]): 39.9 °C | Amount of PGE in c.s.f. (cats; [7]): 11 ng/ml of c.s.f. | Rectal temperature (cats; [7]): 41.3 °C | Amount of PGE in c.s.f. (cats; [8]): 2.6 ng/ml of c.s.f. | Rectal temperature (cats; [8]): 39.0 °C | PGI2 (thoracic aorta, PGI2): 0.19 ± 0.04 ng/mg wet tissue | Number of revertant colonies TA 100 [3]: 138 number per plate | Blood sugar [4]: 133.6 ± 8.3 mg/100 ml
